What was measured:
11 βHSD2 [1] = target: T1, 11 βHSD2 (Homo sapiens, UniProt P80365); assay: Cofactor specificity of glucocorticoid metabolism in homogenates of pHSD2 transfected CHOP cells; type: biochemical; settings: 1 mM NAD+ or 1 mM NADP+, 1-2 nM tritiated plus 10 nM unlabelled substrate, 37° C., 40 minutes, TLC
T1 sequence (P80365 1-405 V148L): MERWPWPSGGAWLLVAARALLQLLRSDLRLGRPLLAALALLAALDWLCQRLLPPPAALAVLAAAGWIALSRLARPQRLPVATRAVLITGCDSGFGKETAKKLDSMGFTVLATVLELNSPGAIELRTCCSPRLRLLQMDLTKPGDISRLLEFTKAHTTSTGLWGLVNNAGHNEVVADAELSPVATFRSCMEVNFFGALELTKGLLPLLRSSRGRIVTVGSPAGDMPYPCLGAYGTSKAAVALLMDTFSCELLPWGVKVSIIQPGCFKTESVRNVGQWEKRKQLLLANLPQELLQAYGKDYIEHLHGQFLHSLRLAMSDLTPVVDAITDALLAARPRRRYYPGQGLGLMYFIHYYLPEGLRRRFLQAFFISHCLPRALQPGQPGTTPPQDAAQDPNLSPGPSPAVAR
Description: CHOP cells were transfected with plasmid pHSD2, which contains an insert encoding 11 βHSD2. After 60 hours incubation in 85 mm plates, cellular homogenates were prepared and assayed for their ability to metabolise glucocorticoid substrates in the presence of 1 mM NAD+, or 1 mM NADP+. Confluent cells were homogenised in 1 ml of homogenisation buffer (0.25M sucrose, 10 MM phosphate, pH 7). Reaction mixtures (500 μl) contained either 40 μl of homogenate plus [^3 H]corticosterone, or 80 μl of homogenate plus [^3 H]cortisol, or 120 μl of homogenate plus [^3 H]dexamethasone, in homogenisation buffer. All reactions contained 1-2 nM tritiated glucocorticoid substrate plus 10 nM unlabelled glucocorticoid substrate. Reaction mixtures were incubated at 37° C. for 40 minutes and steroid metabolites were assayed by thin layer chromatography.

11 βHSD2 [2] = target: T1, 11 βHSD2; assay: Directionality and end-product inhibition in intact pHSD2 transfected CHOP cells; type: cell-based; settings: monolayer cultures, 1.5 hours at 37° C., labelled substrate, TLC of culture medium
Description: To determine directionality and extent of end production inhibition of the enzyme encoded by pHSD2, monolayer cultures of transfected CHOP cells were incubated for 1.5 hours at 37° C. with 1-2 nM labelled substrates plus 10 nM corresponding unlabelled 11-dehydro metabolite (FIG. 2b). The culture medium was then removed, extracted and assayed by TLC for the presence of the 11-dehydro metabolite.

11 βHSD2 [3] = target: T1, 11 βHSD2; type: biochemical; settings: substrate Km, double reciprocal plot, homogenates of pHSD2 transfected CHOP cells, 37° C., mean±SD, n=3
Excerpt: The efficiency of the dehydrogenase may be further increased by mechanisms such as intracellular compartmentalisation of the enzyme.

Compound	glucocorticoid metabolism to 11-dehydro metabolite, cofactor dependence (11 βHSD2 [1])	metabolite formation by intact transfected CHOP cells (11 βHSD2 [2])	Km (11 βHSD2 [3]) [µM]
C[C@]12C[C@H](O)[C@H]3[C@@H](CCC4=CC(=O)CC[C@@]43C)[C@@H]1CC[C@@H]2C(=O)CO [corticosterone]	only showed significant glucocorticoid metabolism when NAD+, but not NADP+, was included as a cofactor	converted	0.0044 ± 0.0012
C[C@]12CC(=O)[C@H]3[C@@H](CCC4=CC(=O)CC[C@@]43C)[C@@H]1CC[C@@H]2C(=O)CO [11-dehydro corticosterone]		no metabolite formed	
C[C@@H]1C[C@H]2[C@@H]3CCC4=CC(=O)C=C[C@]4(C)[C@@]3(F)[C@@H](O)C[C@]2(C)[C@@]1(O)C(=O)CO [dexamethasone]	only showed significant glucocorticoid metabolism when NAD+, but not NADP+, was included as a cofactor		
C[C@]12CCC(=O)C=C1CC[C@@H]1[C@@H]2C(=O)C[C@@]2(C)[C@H]1CC[C@]2(O)C(=O)CO [cortisone]		no metabolite formed	
C[C@]12CCC(=O)C=C1CC[C@@H]1[C@@H]2[C@@H](O)C[C@@]2(C)[C@H]1CC[C@]2(O)C(=O)CO [cortisol]	only showed significant glucocorticoid metabolism when NAD+, but not NADP+, was included as a cofactor	converted	0.047 ± 0.0018

Source: patent US5883240A, “Genetic sequences encoding glucocorticoid dehydrogenases and uses therefor” (Baker Medical Research Institute, priority 1995, dated 1999)
